Experimental data: the NIST ThermoML archive (doi:10.1016/j.jct.2012.11.014)

Assay: xn = mol fraction of the nth substance listed
Conditions: 101 kPa, Liquid; for speed of sound: Frequency=2 MHz, Linear variable-path acoustic interferometer; for viscosity: Oscillating disk viscometry; for mass density: Vibrating tube method

C[NH+](C)C.O=P([O-])(O)O [trimethylammonium dihydrogen phosphate] + C[S+](C)[O-]
Conditions	mass density [kg/m3]	speed of sound [m/s]	viscosity [mPa·s]
298.15 K, x1 = 0.0264	1101.75	1494	2.17
298.15 K, x1 = 0.0397	1104.69	1493	2.25
298.15 K, x1 = 0.0708	1111.45	1492	2.45
298.15 K, x1 = 0.1172	1121.12	1494	2.74
298.15 K, x1 = 0.1673	1130.48	1496	3.05
298.15 K, x1 = 0.2284	1141.05	1502	3.41
298.15 K, x1 = 0.2934	1153.02	1510	3.79
298.15 K, x1 = 0.3413	1160.74	1518	4.07
298.15 K, x1 = 0.4012	1172.7	1527	4.41
298.15 K, x1 = 0.4659	1185.32	1540	4.77
298.15 K, x1 = 0.5306	1199.2	1554	5.12
298.15 K, x1 = 0.6022	1215.92	1570	5.51
298.15 K, x1 = 0.6728	1235.08	1587	5.89
298.15 K, x1 = 0.7504	1257.14	1608	6.3
298.15 K, x1 = 0.8137	1278.01	1624	6.64
298.15 K, x1 = 0.8805	1302.18	1641	6.99
298.15 K, x1 = 0.9643	1337.27	1662	7.45
298.15 K, x1 = 0.9858	1347.05	1668	7.56
298.15 K, x1 = 1	1353.61	1672	7.64
303.15 K, x1 = 0.0264	1099.07	1471	1.95
303.15 K, x1 = 0.0397	1102.31	1471	2.02
303.15 K, x1 = 0.0708	1109.32	1471	2.18
303.15 K, x1 = 0.1172	1119.09	1474	2.43
303.15 K, x1 = 0.1673	1128.56	1477	2.69
303.15 K, x1 = 0.2284	1139.84	1483	2.99
303.15 K, x1 = 0.2934	1151.1	1491	3.31
303.15 K, x1 = 0.3413	1160.68	1499	3.53
303.15 K, x1 = 0.4012	1171.28	1510	3.81
303.15 K, x1 = 0.4659	1184.46	1523	4.11
303.15 K, x1 = 0.5306	1198.94	1537	4.4
303.15 K, x1 = 0.6022	1214.84	1554	4.72
303.15 K, x1 = 0.6728	1233.24	1572	5.02
303.15 K, x1 = 0.7504	1256.51	1592	5.36
303.15 K, x1 = 0.8137	1276.03	1610	5.64
303.15 K, x1 = 0.8805	1302.06	1627	5.93
303.15 K, x1 = 0.9643	1336.07	1649	6.3
303.15 K, x1 = 0.9858	1344.82	1656	6.4
303.15 K, x1 = 1	1350.62	1660	6.46
308.15 K, x1 = 0.0264	1093.45	1459	1.78
308.15 K, x1 = 0.0397	1096.91	1460	1.83
308.15 K, x1 = 0.0708	1104.49	1461	1.97
308.15 K, x1 = 0.1172	1114.06	1464	2.18
308.15 K, x1 = 0.1673	1124.47	1468	2.41
308.15 K, x1 = 0.2284	1136.12	1475	2.67
308.15 K, x1 = 0.2934	1147.36	1485	2.94
308.15 K, x1 = 0.3413	1157.63	1492	3.13
308.15 K, x1 = 0.4012	1167.76	1504	3.37
308.15 K, x1 = 0.4659	1181.31	1518	3.62
308.15 K, x1 = 0.5306	1196.24	1531	3.86
308.15 K, x1 = 0.6022	1214.48	1548	4.13
308.15 K, x1 = 0.6728	1232.06	1567	4.38
308.15 K, x1 = 0.7504	1256.27	1588	4.67
308.15 K, x1 = 0.8137	1276.94	1605	4.91
308.15 K, x1 = 0.8805	1301.06	1625	5.16
308.15 K, x1 = 0.9643	1334.09	1649	5.47
308.15 K, x1 = 0.9858	1342.26	1656	5.56
308.15 K, x1 = 1	1347.59	1661	5.61
313.15 K, x1 = 0.0264	1089.15	1442	1.65
313.15 K, x1 = 0.0397	1092.77	1443	1.7
313.15 K, x1 = 0.0708	1100.69	1444	1.83
313.15 K, x1 = 0.1172	1109.86	1449	2.02
313.15 K, x1 = 0.1673	1121.53	1452	2.22
313.15 K, x1 = 0.2284	1134.54	1460	2.45
313.15 K, x1 = 0.2934	1145.27	1471	2.69
313.15 K, x1 = 0.3413	1156.54	1479	2.86
313.15 K, x1 = 0.4012	1167.52	1493	3.07
313.15 K, x1 = 0.4659	1181.73	1507	3.3
313.15 K, x1 = 0.5306	1196.14	1522	3.51
313.15 K, x1 = 0.6022	1214.06	1540	3.75
313.15 K, x1 = 0.6728	1232.95	1560	3.98
313.15 K, x1 = 0.7504	1256.04	1581	4.24
313.15 K, x1 = 0.8137	1276.61	1601	4.44
313.15 K, x1 = 0.8805	1299.14	1623	4.67
313.15 K, x1 = 0.9643	1331.48	1651.4	4.95
313.15 K, x1 = 0.9858	1339.35	1659	5.02
313.15 K, x1 = 1	1344.52	1664	5.07

CC(=O)[O-].C[NH+](C)C [trimethylammonium acetate] + C[S+](C)[O-]
Conditions	mass density [kg/m3]	speed of sound [m/s]	viscosity [mPa·s]
298.15 K, x1 = 0.0159	1094.86	1497	2.03
298.15 K, x1 = 0.0656	1093.33	1501	2.16
298.15 K, x1 = 0.1182	1091.46	1505	2.29
298.15 K, x1 = 0.1693	1089.27	1509	2.41
298.15 K, x1 = 0.2333	1086.77	1513	2.55
298.15 K, x1 = 0.2857	1084.45	1517	2.66
298.15 K, x1 = 0.3408	1081.92	1521	2.77
298.15 K, x1 = 0.3877	1079.63	1524	2.84
298.15 K, x1 = 0.4358	1077.39	1527	2.91
298.15 K, x1 = 0.5129	1073.63	1532	3
298.15 K, x1 = 0.5506	1071.66	1534	3.03
298.15 K, x1 = 0.5959	1069.68	1536	3.05
298.15 K, x1 = 0.6852	1065.62	1540	3.08
298.15 K, x1 = 0.7487	1062.84	1542	3.06
298.15 K, x1 = 0.8156	1060.15	1543	3.01
298.15 K, x1 = 0.8651	1058.27	1544	2.97
298.15 K, x1 = 0.9231	1056.26	1544	2.89
298.15 K, x1 = 0.961	1055.02	1544	2.84
298.15 K, x1 = 1	1053.85	1544	2.76
303.15 K, x1 = 0.0159	1092.06	1473	1.85
303.15 K, x1 = 0.0656	1090.58	1477	1.99
303.15 K, x1 = 0.1182	1088.73	1480	2.12
303.15 K, x1 = 0.1693	1086.54	1484	2.23
303.15 K, x1 = 0.2333	1083.95	1488	2.37
303.15 K, x1 = 0.2857	1081.41	1492	2.47
303.15 K, x1 = 0.3408	1078.78	1495	2.56
303.15 K, x1 = 0.3877	1076.45	1498	2.63
303.15 K, x1 = 0.4358	1074.03	1501	2.7
303.15 K, x1 = 0.5129	1070.25	1505	2.78
303.15 K, x1 = 0.5506	1068.52	1507	2.81
303.15 K, x1 = 0.5959	1066.19	1509	2.83
303.15 K, x1 = 0.6852	1062.02	1512	2.82
303.15 K, x1 = 0.7487	1059.21	1513	2.8
303.15 K, x1 = 0.8156	1056.44	1514	2.75
303.15 K, x1 = 0.8651	1054.43	1515	2.65
303.15 K, x1 = 0.9231	1052.36	1515	2.55
303.15 K, x1 = 0.961	1051.09	1515	2.48
303.15 K, x1 = 1	1049.87	1514	2.37
308.15 K, x1 = 0.0159	1085.87	1461	1.71
308.15 K, x1 = 0.0656	1084.72	1465	1.84
308.15 K, x1 = 0.1182	1083.28	1469	1.96
308.15 K, x1 = 0.1693	1081.2	1473	2.07
308.15 K, x1 = 0.2333	1078.93	1479	2.2
308.15 K, x1 = 0.2857	1076.51	1483	2.29
308.15 K, x1 = 0.3408	1073.96	1487	2.39
308.15 K, x1 = 0.3877	1071.75	1491	2.45
308.15 K, x1 = 0.4358	1069.43	1494	2.51
308.15 K, x1 = 0.5129	1065.68	1499	2.57
308.15 K, x1 = 0.5506	1063.92	1501	2.59
308.15 K, x1 = 0.5959	1061.71	1504	2.6
308.15 K, x1 = 0.6852	1057.63	1507	2.59
308.15 K, x1 = 0.7487	1054.92	1509	2.55
308.15 K, x1 = 0.8156	1052.23	1511	2.49
308.15 K, x1 = 0.8651	1050.25	1511	2.39
308.15 K, x1 = 0.9231	1048.26	1511	2.27
308.15 K, x1 = 0.961	1046.98	1510	2.19
308.15 K, x1 = 1	1045.81	1508	2.06
313.15 K, x1 = 0.0159	1081.32	1443	1.61
313.15 K, x1 = 0.0656	1080.52	1447	1.73
313.15 K, x1 = 0.1182	1079.21	1452	1.85
313.15 K, x1 = 0.1693	1077.1	1457	1.96
313.15 K, x1 = 0.2333	1074.98	1463	2.08
313.15 K, x1 = 0.2857	1072.77	1468	2.16
313.15 K, x1 = 0.3408	1070.09	1472	2.26
313.15 K, x1 = 0.3877	1067.96	1476	2.31
313.15 K, x1 = 0.4358	1065.48	1481	2.36
313.15 K, x1 = 0.5129	1061.68	1486	2.41
313.15 K, x1 = 0.5506	1060.02	1489	2.43
313.15 K, x1 = 0.5959	1057.67	1491	2.44
313.15 K, x1 = 0.6852	1053.56	1495	2.41
313.15 K, x1 = 0.7487	1050.78	1497	2.37
313.15 K, x1 = 0.8156	1048.06	1497	2.29
313.15 K, x1 = 0.8651	1045.97	1496	2.18
313.15 K, x1 = 0.9231	1044.14	1495	2.06
313.15 K, x1 = 0.961	1042.88	1493	1.97
313.15 K, x1 = 1	1041.7	1490	1.83
